Here are results for one molecule from patent US11684592B2, “Multiresistant-tumour sensitiser” (Instituto Nacional de Neurologia Y Neurocirugia Manuel …, priority 2017, dated 2023).

Structures are written as SMILES.

For one data set, the system named is C6 cells from rat glioma. Kind of data set: DNA fragmentation assay. The format is cell-based. Conditions: curcumin 100 μM or Cur-[G2]-OH 300 μM, 24 h. Here is the method:
To determine DNA fragmentation, C6 cells (1×10^6) were seeded in Petri dishes (100 mm) at a confluence of 70%. They were treated with curcumin (100 μM) or Cur-[G2]-OH (300 μM) and incubated for 24 and 48 hours. Controls were incubated with vehicle only (DMSO or PBS respectively).
The DNA was extracted using Trizol (Invitrogen® 15596-026), according to the supplier's specifications, and quantified on a spectrophotometer (Genesys 8®). 20 μg of DNA from each sample was deposited on a 1.5% agarose gel. Electrophoresis was performed at 100 V for 90 minutes. The gel was stained with the Hydragreen™ dye (ACTGene ACT-IDM604) and DNA detection was performed using the ethidium bromide filter and UV light on the Chemidoc-It TS2 imager photodocument (UVP, CA).

Data set [1] deals with p62, Beclin1 or LC3 in C6 cells. Put plainly: Analysis of autophagy markers by immunofluorescence (simple staining). The format is cell-based, rat. Conditions: Cur-[G2]-OH 3-150 μM, 6 and 24 hours. Here is the method:
Simple staining: 1×10^4 C6 cells/well were cultured with 100 μL of DMEM medium in 96-well plates and incubated 24 hours. Cells were treated with different concentrations of Cur-[G2]-OH (3, 6, 15, 30, 45, 90 and 150 μM), and incubated for 6 and 24 hours. Control cells were replaced only with fresh DMEM medium. The cells were washed with cold PBS and fixed with a mixture of methanol/acetone (1:1) for 5 minutes; they were washed with PBS and incubated with 1% BSA in PBST. Subsequently, they were incubated with the primary antibody (p62, Beclin1 or LC3) at 4° C. overnight. They were washed and incubated with the fluorochrome-conjugated secondary antibody (Abcam® ab150073 Alexa fluor 488) for 1 hour at room temperature. They were washed with PBS and the nucleus stained with Hoechst 33342 (0.1 μg/ml). The images were observed on a Cytation 3® multimodal plate reader and captured and analyzed with the Gen5® 2.06 program using the DAPI (λ=377-447 nm) and GFP (λ=469-525 nm) filters.

Data set [2] relates to Keap1, Nrf2 and p62 in C6 cells. Put plainly: Sequential immunofluorescence, co-location of Keap1-p62, Nrf2-p62 and Keap1-Nrf2. The format is cell-based, rat. Conditions: Cur-[G2]-OH 6, 45 or 90 µM, 24 hours. Here is the method: Sequential immunofluorescence: For the protein co-location studies of Keap1-p62, Nrf2-p62 and Keap1-Nrf2, 5×10^3 C6 cells/well were grown in half-area 96 well plates and incubated for 24 hours. Subsequently, the cells were treated with Cur-[G2]-OH (6, 45 or 90 µM) and incubated for 24 hours. In control cells only DMEM medium was replaced by fresh medium. Then, cells were washed with cold PBS and fixed with paraformaldehyde (4% in PBS) or with a mix of methanol/acetone, with paraformaldehyde, cells were washed and permeabilized with PBST (this step was not performed on the cells fixed with methanol/acetone). Cells were washed again and blocked in BSA at 1% in PBST.
The cells were incubated in the first primary antibody (Keap1 or Nrf2) at 4° C. overnight, and subsequently washed and re-incubated with the fluorochrome-conjugated secondary antibody (Alexa fluor 488 Abcam® ab150129), in the dark for 1 hour at room temperature. They were washed and again blocked for 30 minutes with goat serum; The serum was removed and the solution of the second respective primary antibody (p62 or Nrf2) was placed. It was incubated at 4° C. overnight. The incubation of the secondary antibodies proceeded in the same manner as described before, but using the Alexa flour 647 antibody from Abcam® (ab150079). The nuclei were stained with Hoechst 33342 solution (0.1 μg/ml) and the images were captured on a Cytation 3® multimodal plate reader (Bio Tek®, Instruments Inc.), with the Gen5 2.06 program using DAPI filters (λ=377-447 nm), GFP (λ=469-525 nm) and Texas Red (λ=586-647 nm).

Data set [3] concerns C6 cells. Kind of data set: Effect on glutathione (GSH) concentration, GT10 colorimetric test. The format is cell-based, rat. As to the method:
Reduced glutathione (GSH) intracellular concentration were measured by a colorimetric test using the GT10 (Oxford Biomedical Research® kit), following the manufacturer's instructions. […] The controls were incubated with DMEM media only. Absorbance was read at 400 nm in Cytation3 ® cell Imaging Multi-mode reader (BioTeck, USA). It is observed that at low concentrations of Cur-[G2]-OH, the synthesis of GSH is induced in C6 cells, but at high concentrations GSH synthesis is inhibited and decrease its concentration in cells.

Data set [4] concerns C6 cells. Put plainly: Sensitization of tumor cells to oxidative stress (FeSO4), MTT cell viability. The format is cell-based, rat. As to the method:
C6 cells (1×10^5 cells/well) were seeded in 96 wells plates. At 24 h, a group of cells were treated with FeSO4 at concentrations of 50, 80, 100 and 150 μM or Cur-[G2]-OH at concentrations of 240 or 300 μM and incubated for an additional 24 hours.
Another group of cells were previously incubated by 2 h with the oxidizing agent FeSO4 at concentrations of 50, 80, 100 and 150 μM and subsequently washed for addition to cur-[G2]-OH at concentrations of 240 or 300 μM, continued to incubate until 24 h was completed. A last group of cells, first was treated with Cur-[G2]-OH at concentrations of 240 or 300 μM for 4 h and subsequently changed the medium and FeSO4 was added to concentrations of 50, 80, 100 or 150 μM continuing incubation for 20 hours more.
The colorimetric test based on the reduction of tetrazolium dye MTT (3-(4,5-dimethyltiazol-2-yl)-2,5-diphenyltetrazolium bromide) was used to determine cell viability (Terry L. et al. Cell Viability Assays. May 1, 2013). The formazan crystals were dissolved with a mixture of isopropanol/acetic acid and the absorbance was measured at 540 nm in a microplate reader (Molecular Devices, Sunnyvale, Calif., USA).
The data were statistically analyzed using a one-way ANOVA analysis, and Newman Keuls post-analysis for multiple comparisons (n=3, Mean=SEM).

In another data set the test system is normal cells. Put plainly: Toxicity to normal cells. The format is cell-based. Conditions: high concentration.

Regarding `COc1cc(/C=C/C(=O)/C=C(O)/C=C/c2ccc(OC(=O)C(C)(COC(=O)C(C)(CO)CO)COC(=O)C(C)(CO)CO)c(OC)c2)ccc1OC(=O)C(C)(COC(=O)C(C)(CO)CO)COC(=O)C(C)(CO)CO` [Cur-[G-2]-OH], the “DNA fragmentation (agarose gel electrophoresis)” value with C6 cells from rat glioma was “DNA remains packed and does not migrate into the gel”. In addition, in data set [1], the “expression of Beclin1 (immunofluorescence)” value was “induces the expression of proteins Beclin1 and LC3, in a concentration-dependent manner”; the “expression of LC3 (immunofluorescence)” value is “induces the expression of proteins Beclin1 and LC3, in a concentration-dependent manner”; the “expression of p62 (immunofluorescence)” value is recorded as “significantly decreasing expression of p62”. Also, in data set [2], the “co-location Keap1-Nrf2 in the nucleus” value is listed as “interaction of Keap1 with Nrf2 in this subcellular compartment is observed”; the “expression of Keap1 in nucleus and cytoplasm (immunofluorescence)” value was “significant levels are still detected, both in the nucleus and in the cytoplasm”; the “expression of Nrf2 in cytoplasm and nucleus (immunofluorescence)” value is “rapidly induces the loss of the expression of protein Nrf2 in the cytoplasm and the attenuation of the signal in the nucleus”; the “p62 localisation and co-location Keap1-p62” value is “promotes the exclusion of p62 from the nucleus and its interaction with Keap1 in the cytoplasm and autophagosomes”. Further, the “decrease at GSH levels” value in the data set on C6 cells [3] (300 μM, 24 h) is on record as “about 50%”. In the data set with C6 cells [3] (300 μM, 48 hours, data not shown), the GSH levels entry was “complete elimination of GSH levels”. For the same molecule, in the data set with C6 cells [3] (intermediate doses 45 and 90 μM, 24 hours), the “baseline levels of GSH” value is listed as “causes the baseline levels of GSH to increase considerably”. Besides, the “cell viability / cytotoxicity in combination with FeSO4 (MTT)” value in the data set with C6 cells [4] (C6 cells first exposed to FeSO4 50-150 μM for 2 h, then Cur-[G2]-OH 240 or 300 μM, or administered simultaneously) is on record as “This synergism does not exist”. Moreover, the “cell viability / cytotoxicity in combination with FeSO4 (MTT)” value in the data set on C6 cells [4] (C6 cells pre-incubated with Cur-[G2]-OH 240 or 300 μM for 4 h, then FeSO4 50-150 μM for 20 h) is “synergism between Cur-[G-2]-OH and FeSO4”. Besides, the “toxicity to normal cells” value with normal cells is “not toxic to normal cells at high concentration”.
